Assay results reported in patent publication EP4678638A1, “NEW E3 UBIQUITIN LIGASE LIGAND, PROTEIN DEGRADATION AGENT AND USE THEREOF” (priority 2023, dated 2024).

Each molecule was assayed against T1, FAK (Homo sapiens, UniProt Q05397) (assay: Western blot degradation of FAK). Conditions: Table D7.
T1 construct: evaluate the effects of the compounds of the present disclosure on the expression of target proteins in cells; endogenous in cells
T1 sequence (Q05397 whole entry, species assumed): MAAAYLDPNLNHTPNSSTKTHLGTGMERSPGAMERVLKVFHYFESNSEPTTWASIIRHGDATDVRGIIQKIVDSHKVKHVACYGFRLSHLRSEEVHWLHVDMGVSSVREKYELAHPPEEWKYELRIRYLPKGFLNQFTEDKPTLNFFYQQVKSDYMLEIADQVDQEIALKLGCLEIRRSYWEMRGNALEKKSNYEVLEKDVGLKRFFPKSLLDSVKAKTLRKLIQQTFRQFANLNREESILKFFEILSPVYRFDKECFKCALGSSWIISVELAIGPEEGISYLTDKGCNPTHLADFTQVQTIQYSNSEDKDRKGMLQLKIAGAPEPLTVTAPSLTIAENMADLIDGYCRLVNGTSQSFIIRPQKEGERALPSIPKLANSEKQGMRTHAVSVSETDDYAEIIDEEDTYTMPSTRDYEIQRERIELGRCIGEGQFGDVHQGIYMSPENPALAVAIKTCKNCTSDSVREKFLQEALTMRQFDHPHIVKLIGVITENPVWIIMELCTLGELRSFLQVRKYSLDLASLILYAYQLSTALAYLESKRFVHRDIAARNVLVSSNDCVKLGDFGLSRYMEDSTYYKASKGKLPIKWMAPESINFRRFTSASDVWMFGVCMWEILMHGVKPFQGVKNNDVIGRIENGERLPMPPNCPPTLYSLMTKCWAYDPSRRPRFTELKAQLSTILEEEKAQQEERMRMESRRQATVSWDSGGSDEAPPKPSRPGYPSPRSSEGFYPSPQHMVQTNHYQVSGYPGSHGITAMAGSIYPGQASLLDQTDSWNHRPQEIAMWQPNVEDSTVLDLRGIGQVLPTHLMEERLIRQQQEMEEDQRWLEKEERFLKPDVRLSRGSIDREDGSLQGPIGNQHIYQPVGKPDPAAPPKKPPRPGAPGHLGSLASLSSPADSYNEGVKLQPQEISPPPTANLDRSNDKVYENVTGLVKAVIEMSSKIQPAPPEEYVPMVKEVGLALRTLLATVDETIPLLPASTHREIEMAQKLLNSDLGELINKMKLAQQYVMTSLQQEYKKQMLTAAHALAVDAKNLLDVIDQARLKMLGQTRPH
Type: cell-based
Description: Conventional Western blot assay was performed to evaluate the effects of the compounds of the present disclosure on the expression of target proteins in cells.
(1) Cell Seeding and Protein Harvesting: The selected cells were processed according to the cell seeding procedure and protein harvesting procedure in Table III-2. Table III-2 Cell Seeding and Protein Harvesting Procedures
(2) To the collected supernatant, 5X SDS sample loading buffer was added, followed by denaturation at 95°C for 5 minutes. The denatured samples were then separated by SDS-PAGE electrophoresis on a polyacrylamide gel. Proteins were transferred to a nitrocellulose membrane (0.45 µm NC membrane), blocked with blocking buffer at room temperature for 1 hour, and subjected to antibody incubation and development procedures according to the antibody manufacturer's instructions (Cell Signaling Technology).
Half-Maximal Degradation Concentration value (the drug concentration required for degrading proteins by 50%, abbreviated as DC50) reads method: comparing the grayscale values of Western blot bands from drug-treated samples with those from blank DMSO-treated controls, and identifying the drug concentration range at which the grayscale value is half that of the DMSO-treated control bands.
DC50 values can be calculated using ImageJ software to measure grayscale values of Western blot bands from drug-treated samples. The concentration-response curve is fitted to estimate the drug concentration corresponding to half the grayscale value.
Target protein remaining (%) refers to the percentage of target protein remaining in hPBMC cells after treatment with protein degrader compounds.
Calculation method for target protein remaining (%): Use ImageJ software to measure grayscale values of Western blot bands from drug (protein degrader)-treated samples. The grayscale value of drug-treated bands is divided by that of internal control protein bands, and the resulting quotient is normalized to obtain the relative percentage of remaining target protein after protein degrader treatment.
Target protein degradation rate (%) = 100% - target protein remaining (%).
For `CN(c1nccnc1CNc1nc(Nc2ccc(N3CCN(Cc4cc(N5CCC(=O)NC5=O)ncc4F)CC3)cc2)ncc1C(F)(F)F)S(C)(=O)=O` [GT-07405, N-(3-(((2-((4-(4-((2-(2,4-dioxotetrahydropyrimidin-1(2H)-yl)-5-fluoropyridin-4-yl)methyl)piperazin-1-yl)phenyl)amino)-5-(trifluoromethyl)pyrimidin-4-yl)amino)methyl)pyrazin-2-yl)-N-methylmethanesulfonamide], the “Degradation of substrate protein FAK (substrate protein remaining %)” value (“Degradation … (substrate protein remaining %)” for short) was “A (A is defined as 0% ≤ substrate protein remaining % ≤ 80%)”. `CN(c1nccnc1CNc1nc(Nc2ccc(N3CCN(Cc4ccnc(N5CCC(=O)NC5=O)c4)CC3)cc2)ncc1C(F)(F)F)S(C)(=O)=O` [GT-07406, N-(3-(((2-((4-(4-((2-(2,4-dioxotetrahydropyrimidin-1(2H)-yl)pyridin-4-yl)methyl)piperazin-1-yl)phenyl)amino)-5-(trifluoromethyl)pyrimidin-4-yl)amino)methyl)pyrazin-2-yl)-N-methylmethanesulfonamide] was tested, and the “Degradation … (substrate protein remaining %)” value was “A (A is defined as 0% ≤ substrate protein remaining % ≤ 80%)”. `CS(=O)(=O)c1cccc(CNc2nc(Nc3ccc(N4CCN(Cc5ccnc(N6CCC(=O)NC6=O)c5)CC4)cc3)ncc2C(F)(F)F)c1` [GT-07462, 1-(4-((4-(4-((4-((3-(methylsulfonyl)benzyl)amino)-5-(trifluoromethyl)pyrimidin-2-yl)amino)phenyl)piperazin-1-yl)methyl)pyridin-2-yl)dihydropyrimidine-2,4(1H,3H)-dione] was tested, and the “Degradation … (substrate protein remaining %)” value was “A (A is defined as 0% ≤ substrate protein remaining % ≤ 80%)”. In the case of `CS(=O)(=O)c1cccc(CNc2nc(Nc3ccc(N4CCN(Cc5ccc(C6CCC(=O)NC6=O)cn5)CC4)cc3)ncc2C(F)(F)F)c1` (centres unmarked) [GT-07466, 3-(6-((4-(4-((4-((3-(methylsulfonyl)benzyl)amino)-5-(trifluoromethyl)pyrimidin-2-yl)amino)phenyl)piperazin-1-yl)methyl)pyridin-3-yl)piperidine-2,6-dione], the “Degradation … (substrate protein remaining %)” value is reported as “A (A is defined as 0% ≤ substrate protein remaining % ≤ 80%)”. For `CN(c1nccnc1CNc1nc(Nc2ccc(N3CCN(Cc4ccnc(C5CCC(=O)NC5=O)c4)CC3)cc2)ncc1C(F)(F)F)S(C)(=O)=O` (centres unmarked) [GT-07507, N-(3-(((2-((4-(4-((2-(2,6-dioxopiperidin-3-yl)pyridin-4-yl)methyl)piperazin-1-yl)phenyl)amino)-5-(trifluoromethyl)pyrimidin-4-yl)amino)methyl)pyrazin-2-yl)-N-methylmethanesulfonamide], the “Degradation … (substrate protein remaining %)” value was “A (A is defined as 0% ≤ substrate protein remaining % ≤ 80%)”. In the case of `CN(c1nccnc1CNc1nc(Nc2ccc(N3CCN(Cc4cncc(C5CCC(=O)NC5=O)c4)CC3)cc2)ncc1C(F)(F)F)S(C)(=O)=O` (centres unmarked) [GT-07510, N-(3-(((2-((4-(4-((5-(2,6-dioxopiperidin-3-yl)pyridin-3-yl)methyl)piperazin-1-yl)phenyl)amino)-5-(trifluoromethyl)pyrimidin-4-yl)amino)methyl)pyrazin-2-yl)-N-methylmethanesulfonamide], the “Degradation … (substrate protein remaining %)” value is reported as “A (A is defined as 0% ≤ substrate protein remaining % ≤ 80%)”. For `CNC(=O)c1ccccc1Nc1cc(Nc2ccc(N3CCC(N(C)Cc4ccc(N5CCC(=O)NC5=O)cc4)CC3)cc2OC)ncc1C(F)(F)F` [GT-07649, 2-((2-((4-(4-((4-(2,4-dioxotetrahydropyrimidin-1(2H)-yl)benzyl)(methyl)amino)piperidin-1-yl)-2-methoxyphenyl)amino)-5-(trifluoromethyl)pyridin-4-yl)amino)-N-methylbenzamide], the “Degradation … (substrate protein remaining %)” value was “A (A is defined as 0% ≤ substrate protein remaining % ≤ 80%)”. In the case of `CNC(=O)c1ccccc1Nc1cc(Nc2ccc(N3CCC(N(C)Cc4cccc(N5CCC(=O)NC5=O)c4)CC3)cc2OC)ncc1C(F)(F)F` [GT-07650, 2-((2-((4-(4-((3-(2,4-dioxotetrahydropyrimidin-1(2H)-yl)benzyl)(methyl)amino)piperidin-1-yl)-2-methoxyphenyl)amino)-5-(trifluoromethyl)pyridin-4-yl)amino)-N-methylbenzamide], the “Degradation … (substrate protein remaining %)” value is reported as “A (A is defined as 0% ≤ substrate protein remaining % ≤ 80%)”. With `CNC(=O)c1ccccc1Nc1cc(Nc2ccc(N3CCC(N(C)Cc4cccc(NC5CCC(=O)NC5=O)c4)CC3)cc2OC)ncc1C(F)(F)F` (centres unmarked) [GT-07652, 2-((2-((4-(4-((3-((2,6-dioxopiperidin-3-yl)amino)benzyl)(methyl)amino)piperidin-1-yl)-2-methoxyphenyl)amino)-5-(trifluoromethyl)pyridin-4-yl)amino)-N-methylbenzamide] the “Degradation … (substrate protein remaining %)” value was “A (A is defined as 0% ≤ substrate protein remaining % ≤ 80%)”. In the case of `CNC(=O)c1ccccc1Nc1cc(Nc2ccc(N3CCC(N(C)Cc4ccnc(N5CCC(=O)NC5=O)c4)CC3)cc2OC)ncc1C(F)(F)F` [GT-07654, 2-((2-((4-(4-(((2-(2,4-dioxotetrahydropyrimidin-1(2H)-yl)pyridin-4-yl)methyl)(methyl)amino)piperidin-1-yl)-2-methoxyphenyl)amino)-5-(trifluoromethyl)pyridin-4-yl)amino)-N-methylbenzamide], the “Degradation … (substrate protein remaining %)” value is reported as “A (A is defined as 0% ≤ substrate protein remaining % ≤ 80%)”. For `CNC(=O)c1ccccc1Nc1cc(Nc2ccc(N3CCC(N(C)Cc4ccc(C5CCC(=O)NC5=O)nc4)CC3)cc2OC)ncc1C(F)(F)F` (centres unmarked) [GT-07657, 2-((2-((4-(4-(((6-(2,6-dioxopiperidin-3-yl)pyridin-3-yl)methyl)(methyl)amino)piperidin-1-yl)-2-methoxyphenyl)amino)-5-(trifluoromethyl)pyridin-4-yl)amino)-N-methylbenzamide], the “Degradation … (substrate protein remaining %)” value was “A (A is defined as 0% ≤ substrate protein remaining % ≤ 80%)”. In the case of `CNC(=O)c1ccccc1Nc1cc(Nc2ccc(N3CCC(N(C)Cc4ccc(C5CCC(=O)NC5=O)cn4)CC3)cc2OC)ncc1C(F)(F)F` (centres unmarked) [GT-07658, 2-((2-((4-(4-(((5-(2,6-dioxopiperidin-3-yl)pyridin-2-yl)methyl)(methyl)amino)piperidin-1-yl)-2-methoxyphenyl)amino)-5-(trifluoromethyl)pyridin-4-yl)amino)-N-methylbenzamide], the “Degradation … (substrate protein remaining %)” value is reported as “A (A is defined as 0% ≤ substrate protein remaining % ≤ 80%)”. With `CNC(=O)c1ccccc1Nc1cc(Nc2cc(C)c(C3CCN(Cc4ccc(N5CCC(=O)NC5=O)nc4)CC3)cc2OC(C)C)ncc1C(F)(F)F` [GT-07670, 2-((2-((4-(1-((6-(2,4-dioxotetrahydropyrimidin-1(2H)-yl)pyridin-3-yl)methyl)piperidin-4-yl)-2-isopropoxy-5-methylphenyl)amino)-5-(trifluoromethyl)pyridin-4-yl)amino)-N-methylbenzamide] the “Degradation … (substrate protein remaining %)” value was “A (A is defined as 0% ≤ substrate protein remaining % ≤ 80%)”. With `CNC(=O)c1ccccc1Nc1cc(Nc2cc(C)c(C3CCN(Cc4cncc(N5CCC(=O)NC5=O)c4)CC3)cc2OC(C)C)ncc1C(F)(F)F` [GT-07674, 2-((2-((4-(1-((5-(2,4-dioxotetrahydropyrimidin-1(2H)-yl)pyridin-3-yl)methyl)piperidin-4-yl)-2-isopropoxy-5-methylphenyl)amino)-5-(trifluoromethyl)pyridin-4-yl)amino)-N-methylbenzamide] the “Degradation … (substrate protein remaining %)” value was “A (A is defined as 0% ≤ substrate protein remaining % ≤ 80%)”.
